Measurements taken from ChEMBL document CHEMBL5038632, “Discovery and Characterization of Potent Dual P-Glycoprotein and CYP3A4 Inhibitors: Design, Synthesis, Cryo-EM Analysis, and Biological Evaluations” (J Med Chem, 2022).

Columns and labels:
Cytochrome P450 3A4 = Cytochrome P450 3A4 (Homo sapiens, UniProt P08684); test: Inhibition of CYP3A4 in human liver microsomes using IPA as substrate preincubated for 10 mins followed by NADPH generating system addition and measured after 20 mins
MDR1 [1] = test: Apparent permeability across basolateral side to apical side in MDCKII-MDR1 cells at 3 uM by LC/MS/MS analysis; assay type: ADME, cell-based, Canis lupus familiaris; conditions: dog, MDCK-MDR1
MES-SA/Dx5 = test: Cytotoxicity in human MES-SA/Dx5 cells assessed as reduction in cell viability at 1.28 uM incubated for 3 days by MTT assay relative to control; assay type: toxicity, cell-based; conditions: mes-sa/dx5, 72 h, time 3 day
MDR1 [2] = test: Apparent permeability across apical to basolateral side in MDCKII-MDR1 cells at 3 uM by LC/MS/MS analysis; assay type: ADME, cell-based, Canis lupus familiaris; conditions: dog, MDCK-MDR1
[3] = Efflux ratio of apparent permeability across apical to basolateral to basolateral to apical membrane membrane in MDCK1 at 3 uM; assay type: ADME, cell-based, Canis lupus familiaris; conditions: dog, mdck1, 3 µM
[4] = Cmax in CD-1 mouse at 20 mg/kg, po by LC-MS/MS analysis; assay type: ADME, organism-based; set-up: route oral, dose 20 mg/kg; conditions: in vivo
MDR1 [5] = test: Efflux ratio of apparent permeability across apical to basolateral to basolateral to apical membrane membrane in MDCKII-MDR1 at 3 uM; assay type: ADME, cell-based, Canis lupus familiaris; conditions: dog, MDCK-MDR1
[6] = Apparent permeability across basolateral side to apical side in MDCK1 cells at 3 uM by LC/MS/MS analysis; assay type: ADME, cell-based, Canis lupus familiaris; conditions: dog, MDCK
[7] = AUC (0 to t) in CD-1 mouse at 20 mg/kg, po 30 mins prior to 10 mg/kg, po docetaxel administration measured after 8 hrs by LC-MS/MS analysis; assay type: ADME, organism-based; set-up: route oral, dose 20 mg/kg, time 8.5 hrs; conditions: in vivo
[8] = Cmax in CD-1 mouse at 20 mg/kg, po 30 mins prior to 10 mg/kg, po docetaxel administration measured after 8 hrs by LC-MS/MS analysis; assay type: ADME, organism-based; set-up: route oral, time 8.5 hrs, dose 20 mg/kg; conditions: in vivo
[9] = Tmax in CD-1 mouse at 20 mg/kg, po 30 mins prior to 10 mg/kg, po docetaxel administration measured after 8 hrs by LC-MS/MS analysis; assay type: ADME, organism-based; conditions: in vivo, time 8.5 hrs
[10] = Apparent permeability across apical to basolateral side in MDCK1 cells at 3 uM by LC/MS/MS analysis; assay type: ADME, cell-based, Canis lupus familiaris; conditions: dog, MDCK
[11] = Half life in CD-1 mouse at 20 mg/kg, po 30 mins prior to 10 mg/kg, po docetaxel administration measured after 8 hrs by LC-MS/MS analysis; assay type: ADME, organism-based; conditions: in vivo, time 8.5 hrs
MDR1 [12] = test: Efflux ratio of apparent permeability across apical to basolateral to basolateral to apical membrane membrane in MDCKII-MDR1at 3 uM in presence of valspodar; assay type: ADME, cell-based, Canis lupus familiaris; conditions: dog, MDCK-MDR1, with valspodar (concentration not stated)
[13] = Efflux ratio of apparent permeability across apical to basolateral to basolateral to apical membrane membrane in MDCK1 at 3 uM in presence of valspodar; assay type: ADME, cell-based, Canis lupus familiaris; conditions: dog, MDCK, with valspodar (concentration not stated)
MDR1 [14] = test: Apparent permeability across basolateral side to apical side in MDCKII-MDR1 cells at 1 uM by LC/MS/MS analysis; assay type: ADME, cell-based, Canis lupus familiaris; conditions: dog, MDCK-MDR1
[15] = Efflux ratio of apparent permeability across apical to basolateral to basolateral to apical membrane membrane in MDCK1 at 1 uM in presence of valspodar; assay type: ADME, cell-based, Canis lupus familiaris; conditions: dog, MDCK, with valspodar (concentration not stated)
MDR1 [16] = test: Efflux ratio of apparent permeability across apical to basolateral to basolateral to apical membrane membrane in MDCKII-MDR1at 1 uM in presence of valspodar; assay type: ADME, cell-based, Canis lupus familiaris; conditions: dog, MDCK-MDR1, with valspodar (concentration not stated)
[17] = Efflux ratio of apparent permeability across apical to basolateral to basolateral to apical membrane membrane in MDCK1 at 1 uM; assay type: ADME, cell-based, Canis lupus familiaris; conditions: dog, MDCK
MDR1 [18] = test: Efflux ratio of apparent permeability across apical to basolateral to basolateral to apical membrane in MDCKII-MDR1 at 1 uM; assay type: ADME, cell-based, Canis lupus familiaris; conditions: dog, MDCK-MDR1

Cytochrome P450 3A4, sequence (P08684 whole entry): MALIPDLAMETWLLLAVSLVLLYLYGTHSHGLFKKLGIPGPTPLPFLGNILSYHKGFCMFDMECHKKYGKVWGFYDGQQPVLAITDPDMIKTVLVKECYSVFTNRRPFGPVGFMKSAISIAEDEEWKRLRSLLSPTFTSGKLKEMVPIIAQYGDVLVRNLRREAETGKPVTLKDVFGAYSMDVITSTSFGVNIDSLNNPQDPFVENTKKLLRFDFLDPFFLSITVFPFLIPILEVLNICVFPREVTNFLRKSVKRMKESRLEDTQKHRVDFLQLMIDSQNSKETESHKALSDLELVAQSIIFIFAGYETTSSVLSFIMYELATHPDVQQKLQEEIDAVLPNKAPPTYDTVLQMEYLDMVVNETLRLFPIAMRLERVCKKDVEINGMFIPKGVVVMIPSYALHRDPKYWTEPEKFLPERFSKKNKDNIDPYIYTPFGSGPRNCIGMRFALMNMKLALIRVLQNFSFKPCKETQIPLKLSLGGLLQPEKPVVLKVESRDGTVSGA

IC50 (Cytochrome P450 3A4) [nM]	SMILES	Activity (MES-SA/Dx5) [%]	also measured
1070	COc1cc(NC(=O)c2cc(=O)c3ccccc3o2)c(-c2nnn(-c3ccc(CCN4CCc5cnccc5C4)cc3)n2)cc1OC	1	Papp B→A at 3 µM (MDR1 [1]): < 0.02 ×10⁻⁶ cm/s; Papp A→B at 3 µM (MDR1 [2]): < 0.02 ×10⁻⁶ cm/s
1470	COc1cc2c(cc1OC)CN(CCc1ccc(-n3nnc(-c4cc(Oc5cccnc5)ccc4NC(=O)c4cc(=O)c5ccccc5o4)n3)cc1)CC2	2	Ratio [3]: < 0.22; Papp B→A at 3 µM (MDR1 [1]): 0.002 ×10⁻⁶ cm/s; Cmax [4]: 3.4 nM; efflux ratio at 3 µM (MDR1 [5]): 0.277; Papp B→A at 3 µM [6]: < 0.002 ×10⁻⁶ cm/s; AUC(0-t) at 8.5 h [7]: 11.7 ng·h/mL; Cmax [8]: 2.46 ng/mL; Tmax [9]: 0.5 h; Papp A→B at 3 µM [10]: 0.0093 ×10⁻⁶ cm/s; Papp A→B at 3 µM (MDR1 [2]): 0.0072 ×10⁻⁶ cm/s; half-life [11]: 6.02 h; efflux ratio at 3 µM (MDR1 [12]): 0.093; efflux ratio at 3 µM [13]: 0.085
> 9000	COc1cc2c(cc1OC)CN(CCc1ccc(-n3nnc(-c4cc(OCc5ccccc5)c(OC)cc4NC(=O)c4cc(=O)c5ccccc5o4)n3)cc1)CC2	30	
1240	COc1cc(NC(=O)c2cc(=O)c3ccccc3o2)c(-c2nnn(-c3ccc(CCN4CCc5cnccc5C4)cc3)n2)cc1OCc1ccccc1	3	
516	COc1cc2c(cc1OC)CN(CCc1ccc(-n3nnc(-c4cc(OC)c(OC)cc4NC(=O)c4ccc(-n5ccnc5)cc4)n3)cc1)CC2	5	
> 9000	COc1cc2c(cc1OC)CN(CCc1ccc(-n3nnc(-c4cc(OC)c(OC)cc4NC(=O)c4cc(=O)c5cc(-c6ccncc6)ccc5o4)n3)cc1)CC2	1	
> 9000	COc1cc2c(cc1OC)CN(CCc1ccc(-n3nnc(-c4cc(Oc5ccncc5)ccc4NC(=O)c4cc(=O)c5ccccc5o4)n3)cc1)CC2	9	
> 9000	COc1cc2c(cc1OC)CN(CCc1ccc(-n3nnc(-c4cc(OC)c(OC)cc4NC(=O)c4ccc(-c5cccnc5)cc4)n3)cc1)CC2	0	
305	COc1cc(NC(=O)c2cc(=O)c3ccccc3o2)c(-c2nnn(-c3ccc(CCN4CCc5cc(-n6ccnc6)ccc5C4)cc3)n2)cc1OC	10	
397	COc1cc(NC(=O)c2cc(=O)c3ccccc3o2)c(-c2nnn(-c3ccc(CCN4CCc5ccc(-n6ccnc6)cc5C4)cc3)n2)cc1OC	1	
> 9000	COc1cc2c(cc1OC)CN(CCc1ccc(-n3nnc(-c4cc(OCc5cccnc5)ccc4NC(=O)c4cc(=O)c5ccccc5o4)n3)cc1)CC2	3	
2040	COc1cc(NC(=O)c2cc(=O)c3ccccc3o2)c(-c2nnn(-c3ccc(CCN4CCn5cncc5C4)cc3)n2)cc1OCc1ccccc1	13	Papp B→A at 3 µM (MDR1 [1]): < 0.02 ×10⁻⁶ cm/s; Papp A→B at 3 µM (MDR1 [2]): < 0.02 ×10⁻⁶ cm/s
726	COc1cc2c(cc1OC)CN(CCc1ccc(-n3nnc(-c4cc(OCCc5cccnc5)ccc4NC(=O)c4cc(=O)c5ccccc5o4)n3)cc1)CC2	1	
> 9000	COc1cc2c(cc1OC)CN(CCc1ccc(-n3nnc(-c4cc(OCc5cccnc5)c(OC)cc4NC(=O)c4cc(=O)c5ccccc5o4)n3)cc1)CC2	36	
1050	COc1cc(NC(=O)c2cc(=O)c3ccccc3o2)c(-c2nnn(-c3ccc(CCN4CCc5ccncc5C4)cc3)n2)cc1OC	1	
> 9000	COc1cc2c(cc1OC)CN(CCc1ccc(-n3nnc(-c4cc(OCc5ccncc5)ccc4NC(=O)c4cc(=O)c5ccccc5o4)n3)cc1)CC2	33	
149	COc1cc(NC(=O)c2cc(=O)c3ccccc3o2)c(-c2nnn(-c3ccc(CCN4CCn5cncc5C4)cc3)n2)cc1OC	6	
> 9000	COc1cc2c(cc1OC)CN(CCc1ccc(-n3nnc(-c4cc(OC)c(OC)cc4NC(=O)c4ccc(-c5ccncc5)cc4)n3)cc1)CC2	11	
3340	COc1cc2c(cc1OC)CN(CCc1ccc(-n3nnc(-c4cc(OC)c(OC)cc4NC(=O)c4cc(=O)c5cc(-n6ccnc6)ccc5o4)n3)cc1)CC2	6	
851	COc1cc(NC(=O)c2cnc3ccccc3c2)c(-c2nnn(-c3ccc(CCN4CCc5cnccc5C4)cc3)n2)cc1OCc1ccccc1	3	
> 9000	COc1cc2c(cc1OC)CN(CCc1ccc(-n3nnc(-c4cc(OC)c(OC)cc4NC(=O)c4cc(=O)c5ccccc5o4)n3)cc1)CC2	6	Papp B→A at 1 µM (MDR1 [14]): 0.0049 ×10⁻⁶ cm/s; efflux ratio at 1 µM [15]: 1.36; efflux ratio at 1 µM (MDR1 [16]): 1.73; efflux ratio at 1 µM [17]: 1.83; efflux ratio at 1 µM (MDR1 [18]): 5.74
	CC(=O)N1CCN(c2ccc(OCC3COC(Cn4ccnc4)(c4ccc(Cl)cc4Cl)O3)cc2)CC1 (configuration not stated) [KETOCONAZOLE]	39	
> 9000	COc1cc2c(cc1OC)CN(CCc1ccc(-n3nnc(-c4cc(OC)c(OC)cc4NC(=O)c4cc(=O)c5cc(Br)ccc5o4)n3)cc1)CC2	30	
